One molecule from patent US20090062355A1, “Pharmaceutical Product” (Takeda Pharmaceutical Company Limited, priority 2006, published 2009) can be followed below.

In this test the test system is Human Peripheral Blood Mononuclear Cell. The test can be described thus: Suppressive action on production of mediator from human peripheral blood mononuclear cell. In kind it is cell-based. The settings on record: LPS 10 ng/mL and INFα 1 U/mL, overnight, ELISA. Here is the method:
Peripheral blood mononuclear cells were separated from three healthy subjects by a conventional method, suspended in RPMI1640 medium supplemented with 10% inactivated fetal bovine serum, and plated on a 96 well microplate at 8×10^4 cells/well. Test compound 2 (compound 8′ of Reference Example D7), LPS (final concentration 10 ng/mL) and INFα (final concentration 1 U/mL) were added, cultured overnight, and TNF-α, IL-6 and IL-8 in the culture supernatant was quantified using a commercially available ELISA kit. Test substance was dissolved in N,N-dimethylformamide to 10 mM, diluted with the medium to 10-fold concentration of the final concentration and 1/10 thereof was added. Test compound 2 suppressed production of TNFα, IL-6 and IL-8 at an equivalent IC50. In addition, no difference in the suppressive activity was found in the peripheral blood mononuclear cells of the three subjects.
On the technique in general: In an ELISA, binding on a coated surface is turned into a signal by an enzyme label.

Like-named read-outs stand apart in the source and are kept apart here.

As for `CCOC(=O)C1=CCOCC1S(=O)(=O)Nc1ccc(F)cc1Cl` (stereo not drawn) [test compound 2, ethyl 3-[(2-chloro-4-fluorophenyl)sulfamoyl]-3,6-dihydro-2H-pyran-4-carboxylate], the IC50 by setting is: (subject A, read-out: IC50, IL-6 production) 36 nM; (subject A, read-out: IC50, IL-8 production) 83 nM; (subject A, read-out: IC50, TNF-α production) 43 nM; (subject B, read-out: IC50, IL-6 production) 51 nM; (subject B, read-out: IC50, IL-8 production) 130 nM; (subject B, read-out: IC50, TNF-α production) 39 nM. Also, the IC50 runs as follows: (subject C, read-out: IC50, IL-6 production) 35 nM; (subject C, read-out: IC50, IL-8 production) 81 nM; (subject C, read-out: IC50, TNF-α production) 32 nM.

One may read the IC50 as the concentration that gives 50% inhibition.
